Series [1] in a line: Absorption spectra (absorption maxima) of dyes in organic solvents. The format is physicochemical. From the text:
(§1) All commercially available compounds were purchased from Aldrich Chemical Co., GFS Chemicals, Strem Chemicals, Acros Organics, Alfa Aesar, and Advanced Chemtech and used as received, except for p-toluenesulfonyl hydrazide, which was recrystallized from methanol. Amines were purchased from Aldrich Chemical Co. as purified by redistillation and used as received. Tetrahydrofuran (THF), diethyl ether (Et2O), and dichloromethane (CH2Cl2) were purified by passing through alumina using the Sol-Tek ST-002 solvent purification system. Acetonitrile (MeCN) and toluene were freshly distilled from CaH2 prior to use. Benzene was freshly distilled from sodium/benzophenone prior to use Anhydrous N,N-dimethylformamide (DMF), 1,2-dichloroethane (DCE), and 1,4-dioxane were purchased and used as received from Aldrich Chemical Co. Purification of the compounds by flash column chromatography was performed using silica gel (32-63 μm particle size, 60 Å pore size) purchased from Silicycle, or by using a Biotage Horizon flash purification system with either Biotage SNAP KP-SIL silica cartridges, or Teledyne ISCO RediSep Rf normal phase disposable flash columns (40-60 micron). TLC analyses were performed on EMD Chemicals Silica Gel 60 F254 glass plates (250 μm thickness). ^1H NMR and ^13C NMR spectra were recorded on Bruker Avance 300 MHz, 500 MHz, or 600 MHz spectrometers. Spectra were referenced to residual chloroform (7.27 ppm, ^1H, 77.0 ppm, ^13C) or 1,2-dichlorobenzene (6.93 ppm, ^1H, 127.19 ppm, ^13C). Chemical shifts are reported in ppm, multiplicities are indicated by s (singlet), d (doublet), t (triplet), q (quartet), p (pentet), and m (multiplet). Coupling constants, J, are reported in hertz (Hz). All NMR spectra were obtained at room temperature unless otherwise specified. IR spectra were obtained using a Nicolet Avatar E.S.P. 360 FT-IR. EI mass spectroscopy was performed on a Waters Micromass GCT high resolution mass spectrometer. ES mass spectroscopy was performed on a Waters Q-TOF Ultima API, Micromass UK Limited high resolution mass spectrometer. GC mass spectrometry was performed on a Shimadzu GCMS-17A/QP5050A spectrometer. All microwave-mediated reactions were carried out using a Biotage Initiator™ Exp microwave synthesizer. The microwave parameters were set to variable power, constant temperature, with the fixed hold time set to on. The microwave reactions were carried out in 0.2-0.5 mL, 0.5-2 mL, 2-5 mL, or 10-20 mL Biotage microwave vials. […] Absorption and fluorescence spectra were recorded on Lambda 9 spectrophotometer (Perkin Elmer) and FluoroMax-3 spectrofluorometer (Jobin Yvon, Horiba), respectively. Fluorescence quantum yields were determined by taking Prodan in DMSO (quantum yield, QY=91%) as a reference. The quantum yield values were corrected for the solvent refractive index. For spectroscopic measurements, 10^−5 M solutions of dyes in 10 mm quartz-cuvettes were used (excitation wavelength was 334 nm; slits open to 2 nm).

Series [2] is described as follows: Fluorescence emission spectra (emission maxima, Stokes and bathochromic shifts). Format: physicochemical.
Excerpt: as §1

The nature of series [3]: Fluorescence quantum yield vs Prodan in DMSO as reference. The format is physicochemical. The following applies: for QY (fluorescence quantum yield vs Prodan in DMSO (91%)): excitation 334 nm, 10^-5 M.
Excerpt: as §1

The conditions of series [4]: cited from earlier work.
For series [5] the following is noted: Prodan in DMSO taken as reference; cited from earlier work.

This is an account of results in patent US9896479B2, “Functionalized naphthalene fluorophores” (Kay M. Brummond, priority 2012, dated 2018).

Read-outs that look alike come from different tables or passages of the source.

Consider `CC(=O)c1c2c(cc3c(N(C)C)cccc13)CCC2` [Compound 12, 1-(8-(dimethylamino)-2,3-dihydro-1H-cyclopenta[b]naphthalen-4-yl)ethanone], for which the “λabs (maximum absorption)” value in series [1] (1,4-Dioxane) is on record as 319 nm; in series [1] (Acetonitrile) it was 316 nm; in series [1] (CH2Cl2) it was 334 nm; in series [1] (CHCl3), 334 nm; in series [1] (Cyclohexane), 314 nm; in series [1] (DMSO) it was 334 nm. Further, the “λabs (maximum absorption)” value in series [1] (EtOH) turned out to be 334 nm; in series [1] (THF) it was 330 nm; in series [1] (Toluene), 322 nm. The compound also gave an absorption maximum in series [1] (in methylene chloride) of 332 nm. For the same compound, the “λem (maximum emission)” value in series [2] (1,4-Dioxane) turned out to be 534 nm; in series [2] (Acetonitrile), 590 nm; in series [2] (CH2Cl2), 562 nm; in series [2] (CHCl3), 562 nm; in series [2] (Cyclohexane), 480 nm; in series [2] (DMSO), 598 nm. In addition, the “λem (maximum emission)” value in series [2] (EtOH) is 634 nm; in series [2] (THF) it was 543 nm; in series [2] (Toluene) it was 520 nm. Besides, in series [2] (in methylene chloride), the emission maximum is 562 nm. The “QY (fluorescence quantum yield vs Prodan in DMSO (91%))” value is on record as 44% in series [3] (1,4-Dioxane); 23% in series [3] (Acetonitrile); 60% in series [3] (CH2Cl2); 40% in series [3] (CHCl3); 28% in series [3] (Cyclohexane); 48% in series [3] (DMSO). Moreover, the “QY (fluorescence quantum yield vs Prodan in DMSO (91%))” value was 39% in series [3] (THF) and 47% in series [3] (Toluene).

Consider `CCC(=O)c1ccc2cc(N(C)C)ccc2c1` [Prodan, reference compound], for which the “λabs (maximum absorption)” value is recorded as 346 nm in series [1] (1,4-Dioxane); 350 nm in series [1] (Acetonitrile); 355 nm in series [1] (CH2Cl2); 357 nm in series [1] (DMSO); 362 nm in series [1] (EtOH); 348 nm in series [1] (THF). Also, the “λabs (maximum absorption)” value came to 346 nm in series [1] (Toluene) and 340 nm in series [1] (n-Hexane). For the same compound, the “QY (fluorescence quantum yield vs Prodan in DMSO (91%))” value in series [3] (1,4-Dioxane) is listed as 75%; in series [3] (Acetonitrile) it was 80%; in series [3] (CH2Cl2) it was 98%; in series [3] (DMSO), 91%; in series [3] (EtOH) it was 71%; in series [3] (THF), 78%. In addition, in series [3] (Toluene), the “QY (fluorescence quantum yield vs Prodan in DMSO (91%))” value turned out to be 56%. The “QY (fluorescence quantum yield)” value in series [3] (n-Hexane) came to 2.0%. Besides, the Bathochromic shift in series [4] (cyclohexane to water (background)) is given as 124 nm. Moreover, the fluorescent emission in series [4] (in cyclohexane (background)) is 410 nm; in series [4] (in water (background)), 534 nm. Also, the “quantum yield, QY (reference value)” value in series [5] is 91%.
